Like-named read-outs stand apart in the source and are kept apart here. Marks after values point to notes of the source that are not given here.
Assays:
CB1 receptor = target: T1, CB1 receptor (Rattus norvegicus, UniProt P20272); test: Radioligand displacement in whole rat brain (CB1) membrane preparations; type: binding; details: Tables 1 and 2
T1 construct: Whole rat brains or dissected regions from live CD rats; tissue Charles River or Pel-Freez Biologicals; host or cells: whole rat brain (CD rats), P2 membrane
T1 sequence (P20272 whole entry): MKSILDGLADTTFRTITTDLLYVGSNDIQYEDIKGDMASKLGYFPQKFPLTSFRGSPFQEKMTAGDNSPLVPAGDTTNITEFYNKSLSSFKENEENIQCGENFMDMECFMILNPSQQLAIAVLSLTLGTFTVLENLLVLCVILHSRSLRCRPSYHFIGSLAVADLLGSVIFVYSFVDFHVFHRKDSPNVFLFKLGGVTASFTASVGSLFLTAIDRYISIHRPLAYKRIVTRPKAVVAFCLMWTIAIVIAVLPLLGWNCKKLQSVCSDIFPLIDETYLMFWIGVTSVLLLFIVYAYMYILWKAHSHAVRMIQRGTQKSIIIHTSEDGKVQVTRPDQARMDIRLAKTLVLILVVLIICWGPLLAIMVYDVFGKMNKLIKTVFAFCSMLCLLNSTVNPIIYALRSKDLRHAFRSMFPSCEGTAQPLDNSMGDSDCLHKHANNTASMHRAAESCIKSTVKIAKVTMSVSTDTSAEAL
How it was run: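 Washed P2 membranes from whole rat brain (ca. 0.2 mg/mL) in 50 mM Tris.HCl, 1 mM EDTA, 3 mM MgCl2, pH 7.4 were incubated with radioligand and compound for 1 h at 30 °C, then filtered. IC50 values came from one- or two-site nonlinear fits and were converted to Ki by Cheng-Prusoff. Duplicates were run across 3–6 experiments.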

[1] = target: T2, G-protein-linked cannabinoid receptors (Rattus norvegicus, UniProt P20272); test: GTP-γ-[35S] binding in whole rat brain; type: biochemical; details: for Emax: read-out: Emax, GTP-γ-[35S] in Whole Rat Brain
T2 construct: tissue Charles River or Pel-Freez Biologicals; host or cells: whole rat brain crude membrane homogenate
T2 sequence (P20272 whole entry): as above
Description: Cannabinoid receptor-mediated alteration in GTP-γ-[^35S] binding.
(§1) Introduction. The purpose of this assay was to characterize the functional activity of lead compounds identified by the radioligand competition binding assays described above. Data from the GTP-γ-[^35S] binding assay was used to determine if a compound was an agonist, antagonist or inverse agonist at G-protein-linked cannabinoid receptors. Agonist binding to a G-protein-linked receptor results in an increased affinity of the G-protein α-subunit for GTP relative to GDP. Eventually, an active αGTP complex forms to complete the stimulus-effector coupling. The α-subunit has intrinsic GTPase activity which generates a free α-subunit which can recombine with the β- and γ-subunits readying the G-protein for another signal transduction cycle. In the current assay, GTP-γ-[^35S] cannot be hydrolyzed by the α-subunit. Thus, the amount of bound GTP-γ-[^35S] is a marker for G-protein activation. In this assay, an agonist increases basal GTP-γ-[^35S] binding, an inverse agonist decreases basal binding and basal binding would be unaffected by an antagonist.
Experimental Design. The specific binding of GTP-γ-[^35S], in the absence of test compound, was termed “basal” activity. Test compounds were characterized as agonist, antagonist, or inverse agonist based on their effect on basal activity. […] The concentrations spanned two orders of magnitude because affinity may not be related to efficacy. […] Effects of the test compounds are reported as the percent change from basal. More thorough dose-response analysis may be run to determine, for example, if a compound is a full or partial agonist.
Methods. […] In a final volume of 0.5 mL, each assay tube contained: 0.02 mg crude membrane homogenate (0.1 mL), 200 μM GDP (0.05 mL; to reduce basal G-protein activity), 0.1 nM GTP-γ-[^35S] (0.05 mL) and several concentrations of test compound (0.05 mL) or an equivalent volume of vehicle (used for determination of total binding). Nonspecific binding was determined in the presence of 100 μM unlabeled GTP-γ-S (0.05 mL). Duplicate samples were incubated for 1 h at 30° C. Since this assay is amenable for use with high throughput screening methods, the binding assays were run using a 96-well plate format. Specific binding was calculated as total binding-nonspecific binding.

human CB2 receptor = target: T3, human CB2 receptor (Homo sapiens, UniProt P34972); test: Displacement of 3H-CP55,940 in human CB2 receptor-transfected cells (CHO-K1); type: binding; details: radioligand 3H-CP55940, Tables 6 and 7
T3 construct: expressed in transfected cells; host or cells: CHO-K1
T3 sequence (P34972 whole entry): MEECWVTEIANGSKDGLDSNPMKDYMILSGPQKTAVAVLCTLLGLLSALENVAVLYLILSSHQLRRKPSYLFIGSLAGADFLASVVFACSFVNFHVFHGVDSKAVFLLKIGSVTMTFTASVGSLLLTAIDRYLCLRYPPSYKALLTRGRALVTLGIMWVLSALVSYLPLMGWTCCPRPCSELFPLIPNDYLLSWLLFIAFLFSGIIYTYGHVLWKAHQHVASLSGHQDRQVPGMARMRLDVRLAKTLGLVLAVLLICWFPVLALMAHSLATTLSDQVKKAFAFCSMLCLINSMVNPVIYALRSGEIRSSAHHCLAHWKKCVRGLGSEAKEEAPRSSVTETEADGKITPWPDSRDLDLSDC
Procedure: (§2) Human CB2 receptor affinity. The relative selectivity of the analogs for CB1 versus CB2 receptors varied modestly regardless of the structural modifications examined to date.
Methods—binding assay in transfected cell lines. The methods used for performing binding assays in transfected cells expressing human CB1 or CB2 receptors are those used above. The CB1 receptor involved a HEK-293 expression system whereas the CB2 receptor was expressed in CHO-K1 cells. […] The incubations and separations were then performed as described above for rat brain membrane preparations.
Data analysis. Saturation and displacement data were analyzed by unweighted nonlinear regression of receptor binding data. For displacement studies, curve-fitting and IC50 calculation were done with GraphPad Prism (GraphPad Software, Inc., San Diego, Calif.), which fits the data to one and two-site models and compares the two fits statistically. A similar approach was used for the analysis of isotherm data for calculation of Kd's. A two-site fit was accepted only if it was statistically significant (p<0.05) and the following results were not observed:
IC50 values were then converted to Ki values by reported methods (Cheng and Prusoff, 1973). The statistical evaluation of curve-fitting data allowed for a non-arbitrary conclusion based on the displacement data.

CB1 versus CB2 receptors = test: Relative selectivity of the analogs for CB1 versus CB2 receptors; details: CB1 versus CB2 binding, Tables 1, 6 and 7
Description: as §2

CB1 and CB2 receptors = details: literature, cited from earlier work
human CB1 receptor = target: T4, human CB1 receptor (Homo sapiens, UniProt P21554); test: Radioligand displacement in human CB1 receptor-transfected cells (HEK-293); type: binding
T4 construct: expressed in transfected cells; host or cells: HEK-293
T4 sequence (P21554 whole entry): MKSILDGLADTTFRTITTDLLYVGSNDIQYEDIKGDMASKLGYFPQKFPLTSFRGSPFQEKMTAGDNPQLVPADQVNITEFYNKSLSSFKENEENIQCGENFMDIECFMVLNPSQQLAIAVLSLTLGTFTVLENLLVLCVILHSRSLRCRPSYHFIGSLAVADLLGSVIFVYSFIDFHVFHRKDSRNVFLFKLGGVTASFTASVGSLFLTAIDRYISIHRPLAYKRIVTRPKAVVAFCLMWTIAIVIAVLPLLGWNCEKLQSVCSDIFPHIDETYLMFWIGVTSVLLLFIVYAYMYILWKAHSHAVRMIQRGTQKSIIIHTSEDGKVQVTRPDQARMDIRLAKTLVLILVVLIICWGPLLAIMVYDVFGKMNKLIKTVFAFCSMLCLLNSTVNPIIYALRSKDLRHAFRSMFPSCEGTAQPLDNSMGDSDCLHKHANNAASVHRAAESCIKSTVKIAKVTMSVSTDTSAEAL
How it was run: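 Radioligand displacement was run on HEK-293 cells expressing human CB1, with incubation and separation as for rat brain membranes. IC50 values came from one- or two-site nonlinear regression and were converted to Ki by Cheng-Prusoff.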

[2] = target: T5, CB1 (human) clone receptors (Homo sapiens, UniProt P21554); test: GTP-γ-[35S] binding in CB1 (human) clone receptors; type: biochemical; details: assay run in CB1 (human) clone receptors
T5 construct: expressed in transfected cells
T5 sequence (P21554 whole entry): as above
Description: Cannabinoid receptor-mediated alteration in GTP-γ-[^35S] binding. In addition to assessing CB1 and CB2 receptor affinities, all of the compounds have been screened in the GTP-γ-[^35S] assay to begin characterization of the compounds as agonists, partial agonists, antagonists or inverse agonists.
as §1, with “In the current assay, GTP-γ-[^35S] cannot be hydrolyzed by the α-subunit. Thus, the amount of bound GTP-γ-[^35S] is a marker for G-protein activation. In this assay, an agonist increases basal GTP-γ-[^35S] binding, an inverse agonist decreases basal binding and basal binding would be unaffected by an antagonist.” left out
Methods. Binding was determined using membrane homogenates from whole brain The assays were conducted as previously described (Sim et al. 1996) on brain tissue prepared as described above. […] Nonspecific binding was determined in the presence of 100 μM unlabeled GTP-γ-S (0.05 mL). […] Specific binding was calculated as total binding-nonspecific binding.

[3] = read-out: Ki, displacement of 3H-CP55940, whole rat brain membranes, radioligand 3H-CP55940
[4] = read-out: Ki, displacement of 3H-SR141716A, whole rat brain membranes, radioligand 3H-SR141716A
[5] = whole rat brain membranes, radioligand 3H-CP55940
[6] = whole rat brain membranes, radioligand 3H-SR141716A
[7] = whole rat brain membranes, effects reported as percent change from basal
[8] = read-out: Ki, displacement of 3H-CP55940, human CB2 transfected cells
[9] = Ki, displacement of 3H-CP55940, human CB1 transfected cells, radioligand 3H-CP55940, Table 3
[10] = Ki, displacement of 3H-SR141716A, human CB1 transfected cells, radioligand 3H-SR141716A, Table 3
[11] = human CB1 transfected cells, radioligand 3H-CP55940, Table 3
[12] = human CB1 transfected cells, radioligand 3H-SR141716A, Table 3
[13] = human CB1 transfected cells, radioligand 3H-WIN55212-2, Table 3
[14] = whole rat brain membranes, inverse agonist/antagonist activity, read-out: EC50, GTP-γ-[35S] in Whole Rat Brain

SMILES	Ki (CB1 receptor; [3])	Ki (CB1 receptor; [4])	Max. Disp. %, 3H-CP55940 (CB1 receptor; [5])	Max. Disp. %, 3H-SR141716A (CB1 receptor; [6])	Emax [1, 7]	Max. Disp. %, 3H-CP55940 (human CB2 receptor; human CB2 transfected cells)	Ki (human CB2 receptor; [8])	Max. Disp. %, 3H-CP55940 (human CB1 receptor; [11])	also measured
Cc1c(C(=O)NCCO)nn(-c2ccc(Cl)cc2Cl)c1-c1ccc(Cl)cc1 [MF9725-93-31]	385 nM	343 nM	73.2%	85.5%	-76.5%	33.3%	4.27 µM		EC50 ([1]; whole rat brain membranes, value above highest concentration tested (footnote), read-out: EC50, GTP-γ-[35S] in Whole Rat Brain, value is above highest concentration on displacement curve): ≥ 1670 µM; CB1 selectivity (CB1 versus CB2) (CB1 versus CB2 receptors): 10 fold
Cc1c(C(=O)NN2CCCCC2)nn(-c2ccc(Cl)cc2Cl)c1-c1ccc(Cl)cc1 [SR141716A]									Ki for CB1 lower than for CB2 (CB1 and CB2 receptors; selectivity for the CB1 over the CB2 receptor): over 50 fold
CCCCCCC(C)(C)c1ccc([C@@H]2C[C@H](O)CC[C@H]2CCCO)c(O)c1 [CP55,940]									affinity at CB1 and CB2 receptor sites (CB1 and CB2 receptors): approximately equal affinity
CCCNC(=O)c1nn(-c2ccc(Cl)cc2Cl)c(-c2ccc(Cl)cc2)c1C [MF9725-55C]	29.9 nM	23.6 nM	97.4%	100%	-35.7%	68.3%	2.96 µM	81.9%	Ki (human CB1 receptor; [9]): 33.7 nM; Ki (human CB1 receptor; [10]): 6 nM; Max. Disp. %, 3H-SR141716A (human CB1 receptor; [12]): 93.4%; Max. Disp. %, 3H-WIN55212-2 (human CB1 receptor; [13]): 73.3%; EC50 [1, 14]: 11.1 µM
CCNC(=O)c1nn(-c2ccc(Cl)cc2Cl)c(-c2ccc(Cl)cc2)c1C [MF9725-54C]	46.3 nM	61.5 nM	91.4%	100%	-46.9%	59.6%	3.11 µM	66.7%	Ki (human CB1 receptor; [9]): 137 nM; Ki (human CB1 receptor; [10]): 35.1 nM; Ki (human CB1 receptor; Ki, displacement of 3H-WIN55212-2, human CB1 transfected cells, radioligand 3H-WIN55212-2, Table 3): 185 nM; Max. Disp. %, 3H-SR141716A (human CB1 receptor; [12]): 95.3%; Max. Disp. %, 3H-WIN55212-2 (human CB1 receptor; [13]): 78.8%; EC50 [1, 14]: 30.3 µM
CCOC(=O)c1nn(-c2ccc(Cl)cc2Cl)c(-c2ccc(Cl)cc2)c1C [SH9631-56]	31.8 nM	28.9 nM	91.7%	96.9%		51.4%	4.4 µM	91.0%	Ki (human CB1 receptor; read-out: Ki, displacement of 3H-CP55940): 44.8 nM; EC50 [2]: 195 nM; Emax, GTP-γ-[35S] ([2]; percent change from basal): −18.4^c
CCCCCCCCNC(=O)c1nn(-c2ccc(Cl)cc2Cl)c(-c2ccc(Cl)cc2)c1C [MF9879-164-28]			80.2%	75.2%		45.3%			Ki (CB1 receptor; Ki, displacement of 3H-CP55940, whole rat brain membranes, radioligand 3H-CP55940): 135 nM; Ki (CB1 receptor; Ki, displacement of 3H-SR141716A, whole rat brain membranes, radioligand 3H-SR141716A): 37.4 nM; Ki (CB1 receptor; Ki, displacement of 3H-WIN55212-2, whole rat brain membranes, radioligand 3H-WIN55212-2): 36.2 nM; Max. Disp. %, 3H-WIN55212-2 (CB1 receptor; whole rat brain membranes, radioligand 3H-WIN55212-2): 68.4%; Max. Disp. %, 3H-CP55940 (human CB1 receptor): 70.6%; Max. Disp. %, 3H-SR141716A (human CB1 receptor): 67.8%; Max. Disp. %, 3H-WIN55212-2 (human CB1 receptor): 35.2%; Ki (human CB1 receptor; Ki, displacement of 3H-CP55940): 288 nM; Ki (human CB1 receptor; Ki, displacement of 3H-SR141716A): 44.7 nM; Ki (human CB1 receptor; Ki, displacement of 3H-WIN55212-2): 267 nM; EC50 [1]: ≥ 677 µM; Emax [1]: -21.3%; Ki (human CB2 receptor; Ki, displacement of 3H-CP55940, human CB2 transfected cells): 98.4 µM
